Holding throughout (test): Enzyme Inhibition Assay
One assay concerns the target Cathepsin D (Homo sapiens, UniProt P07339).
A further assay deals with T1, Beta-secretase 2 (Homo sapiens, UniProt Q9Y5Z0).
T1 sequence (Q9Y5Z0 whole entry): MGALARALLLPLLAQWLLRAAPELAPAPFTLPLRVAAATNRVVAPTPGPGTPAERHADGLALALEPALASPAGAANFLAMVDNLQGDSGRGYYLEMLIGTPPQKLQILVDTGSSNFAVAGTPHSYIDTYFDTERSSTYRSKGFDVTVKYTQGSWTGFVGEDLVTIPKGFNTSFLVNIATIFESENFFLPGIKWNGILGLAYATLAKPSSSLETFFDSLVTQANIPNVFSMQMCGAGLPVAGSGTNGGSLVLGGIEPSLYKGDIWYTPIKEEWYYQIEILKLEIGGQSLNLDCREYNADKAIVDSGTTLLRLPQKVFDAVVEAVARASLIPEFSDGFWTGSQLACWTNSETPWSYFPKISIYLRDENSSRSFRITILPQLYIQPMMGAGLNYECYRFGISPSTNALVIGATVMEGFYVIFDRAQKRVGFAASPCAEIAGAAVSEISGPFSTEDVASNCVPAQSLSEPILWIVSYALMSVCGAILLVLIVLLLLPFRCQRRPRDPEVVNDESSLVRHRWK

In the next assay the target is Beta-secretase 1 (Homo sapiens, UniProt P56817). As to conditions: pH 4.5; 22 °C.
Sequence of Beta-secretase 1 (P56817 whole entry): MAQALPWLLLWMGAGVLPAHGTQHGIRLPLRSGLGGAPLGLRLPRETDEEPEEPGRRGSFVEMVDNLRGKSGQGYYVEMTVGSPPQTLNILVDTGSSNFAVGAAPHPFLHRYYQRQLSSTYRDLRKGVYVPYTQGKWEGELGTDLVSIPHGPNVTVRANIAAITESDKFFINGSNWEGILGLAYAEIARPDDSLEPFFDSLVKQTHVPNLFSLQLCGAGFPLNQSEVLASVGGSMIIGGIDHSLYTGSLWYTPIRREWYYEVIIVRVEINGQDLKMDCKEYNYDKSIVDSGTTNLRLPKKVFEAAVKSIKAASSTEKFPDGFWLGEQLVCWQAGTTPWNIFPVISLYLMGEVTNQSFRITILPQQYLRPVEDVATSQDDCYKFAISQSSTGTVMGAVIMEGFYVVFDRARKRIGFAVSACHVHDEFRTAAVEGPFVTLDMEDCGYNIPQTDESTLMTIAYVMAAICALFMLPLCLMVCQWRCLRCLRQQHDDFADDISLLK

Sequence of Cathepsin D (P07339 65-162 limits assumed): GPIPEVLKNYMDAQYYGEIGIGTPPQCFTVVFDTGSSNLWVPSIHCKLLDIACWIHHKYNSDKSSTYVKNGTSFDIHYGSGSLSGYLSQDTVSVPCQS
Sequence of Cathepsin D (P07339 169-412 limits assumed): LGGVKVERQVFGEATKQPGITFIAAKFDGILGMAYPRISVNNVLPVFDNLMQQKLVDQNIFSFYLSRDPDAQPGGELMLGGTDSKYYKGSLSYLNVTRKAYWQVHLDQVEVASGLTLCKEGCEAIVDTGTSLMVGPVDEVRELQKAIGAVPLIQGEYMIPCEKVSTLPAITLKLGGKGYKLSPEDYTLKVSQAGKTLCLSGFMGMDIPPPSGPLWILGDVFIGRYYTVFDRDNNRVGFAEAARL

Take `CCc1cn2c3c(cc(C(=O)N[C@@H](Cc4ccccc4)[C@H](O)CNC4CCOCC4)cc13)OS(=O)(=O)CC2` [sulfone tricyclic analogue, 19]: the IC50 at Cathepsin D (pH 4.5, 22 °C) was 130 nM; on Beta-secretase 2, 450 nM; against Beta-secretase 1, 86 nM.
For the compound `CCc1cn2c3c(cc(C(=O)N[C@@H](Cc4ccccc4)[C@H](O)CNC4CCOCC4)cc13)N(C)S(=O)(=O)CC2` [BMCL193674 Compound 6], the IC50 against Cathepsin D came to 6610 nM; against Beta-secretase 2, 490 nM; against Beta-secretase 1 it was 15 nM.

The values are drawn from BindingDB's records for doi:10.1016/j.bmcl.2009.03.149 (Gsk, 2009).
